Where a name gives a salt, the structure may show the parent alone.
Tests used:
α1A adrenoceptor = target: T1, α1A adrenoceptor (Rattus norvegicus, UniProt P43140); test: Binding to α1A adrenoceptor, [3H] prazosin, rat submaxillary gland crude membrane preparation; details: 0.5 nM [3H] prazosin, 25° C., 30 minutes
T1 construct: a 43,000×g precipitation fraction was prepared from a rat submaxillary gland, and this was used as a crude membrane preparation; from tissue; host or cells: submaxillary gland of Sprague-Dawley male rat, crude membrane preparation
T1 sequence (P43140 1-466): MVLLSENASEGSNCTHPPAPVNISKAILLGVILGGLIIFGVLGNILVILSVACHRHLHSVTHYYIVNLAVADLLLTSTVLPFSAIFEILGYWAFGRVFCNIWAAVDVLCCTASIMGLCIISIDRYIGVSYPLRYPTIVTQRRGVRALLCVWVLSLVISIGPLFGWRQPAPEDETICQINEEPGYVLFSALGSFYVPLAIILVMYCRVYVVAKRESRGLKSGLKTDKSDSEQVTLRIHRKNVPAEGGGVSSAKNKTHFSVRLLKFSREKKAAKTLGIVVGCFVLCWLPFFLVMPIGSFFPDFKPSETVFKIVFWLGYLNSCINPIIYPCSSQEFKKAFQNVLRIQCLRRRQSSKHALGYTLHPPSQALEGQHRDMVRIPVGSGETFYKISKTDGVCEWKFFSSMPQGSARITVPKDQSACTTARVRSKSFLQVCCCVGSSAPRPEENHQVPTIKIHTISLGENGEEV
Experimental: All experiments were performed at temperatures between 0° C. and 4° C. As an α1A adrenoceptor preparation, a 43,000×g precipitation fraction was prepared from a rat submaxillary gland, and this was used as a crude membrane preparation in the experiment.
A Sprague-Dawley male rat was exsanguinated under ether anesthesia, and the submaxillary gland was isolated, was weighed and was cut to pieces with scissors. The cut gland was put into a Potter-Elvehjem type Teflon homogenizer, and was homogenized with 5 times by volume (5 mL per 1 g of the wet weight of the submaxillary gland) of a 50 mM Tris-HCl buffer (pH=7.4) containing 5 mM EDTA, 0.2 mM DTT, and 0.1 mM PMSF. The resulting homogenate was allowed to pass through a nylon mesh and was centrifuged at 800×g for 10 minutes, and the resulting supernatant was centrifuged at 43,000×g for 15 minutes. The precipitate was suspended in a 50 mM Tris-HCl buffer (pH=7.4) (Buffer A) containing 10 mM MgCl2, 0.2 mM DTT, and 0.1 mM PMSF and was then centrifuged at 43,000×g for 15 minutes. The resulting precipitate was suspended in Buffer A to a protein concentration of about 10 mg/mL, and the suspension was used as the crude membrane preparation.
(§1) Each of the crude membrane preparations was dispensed and was stored at −80° C. and was subjected to the experiment on use. The protein concentration was determined by Lowry method using bovine serum albumin as a standard.
(§2) Buffer A (400 μL) containing 0.5 nM [3H] prazosin and 200 μg crude membrane preparation was used as a standard reaction solution. The receptor preparation and [3H] prazosin were incubated at 25° C. for 30 minutes, and 2 mL of cold Buffer A was added to terminate the reaction. […] The same experimental procedure was performed in the presence of 10 μM phentolamine to thereby determine a nonspecific binding activity. A specific binding activity was calculated by subtracting the nonspecific binding activity from the total binding activity.
(§3) A solution ofa test drug was prepared by dissolving the test drug to 10 mM in distilled water, ethanol, or DMSO, and serially diluting the solution with distilled water.
(§4) Kd values and Bmax values were determined using Scatchard plots. Dissociation constant Ki (riM) of each compound was determined according to the following equation.
(§5) Ki=IC50/[1+(radioactive ligand concentration/Kd)]

α1B adrenoceptor = target: T2, α1B adrenoceptor (Rattus norvegicus, UniProt P15823); test: Binding to α1B adrenoceptor, [3H] prazosin, rat liver crude membrane preparation; details: 0.5 nM [3H] prazosin, 25° C., 30 minutes
T2 construct: a 100,000×g precipitation fraction was prepared from a rat liver and this was used as a crude membrane preparation; from tissue; host or cells: liver of Sprague-Dawley male rat, crude membrane preparation
T2 sequence (P15823 1-515): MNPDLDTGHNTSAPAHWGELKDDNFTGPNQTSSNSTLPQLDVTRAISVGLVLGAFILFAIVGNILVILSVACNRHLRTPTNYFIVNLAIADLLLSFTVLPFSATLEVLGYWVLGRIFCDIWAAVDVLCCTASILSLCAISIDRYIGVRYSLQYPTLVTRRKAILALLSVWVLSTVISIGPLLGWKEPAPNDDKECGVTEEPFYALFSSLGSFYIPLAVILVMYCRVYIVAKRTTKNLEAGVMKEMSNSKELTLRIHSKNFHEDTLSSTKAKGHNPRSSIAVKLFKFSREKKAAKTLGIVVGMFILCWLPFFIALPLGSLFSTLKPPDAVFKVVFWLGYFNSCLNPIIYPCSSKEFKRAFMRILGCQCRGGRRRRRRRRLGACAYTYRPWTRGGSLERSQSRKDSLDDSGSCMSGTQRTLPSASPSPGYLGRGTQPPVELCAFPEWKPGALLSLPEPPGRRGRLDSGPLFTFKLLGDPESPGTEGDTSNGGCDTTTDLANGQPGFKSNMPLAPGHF
Experimental: As an α1B adrenoceptor preparation, a 100,000×g precipitation fraction was prepared from a rat liver and this was used as a crude membrane preparation in the experiment.
A Sprague-Dawley male rat was exsanguinated under ether anesthesia, and the liver was isolated, was weighed and was cut into pieces with scissors. The cut liver was put into a Potter-Elvehjem type Teflon homogenizer, and was homogenized with 9 times by volume (9 mL per 1 g of the wet weight of the liver) of a 50 mM Tris-HCl buffer (pH 7.4) containing 0.25 M sucrose, 10 mM MgCl2, 1 mM EDTA, 0.2 mM DTT, and 0.1 mM PMSF. The homogenate was centrifuged at 800×g for 10 minutes, and the resulting supernatant was centrifuged at 100,000×g for 10 minutes, and the supernatant was then further centrifuged at 100,000×g for 60 minutes. The precipitate obtained by centrifugation was suspended in a 50 mM Tris-HCl buffer (pH=7.4) (Buffer A) containing 10 mM MgCl2, 0.2 mM DTT, and 0.1 mM PMSF to a protein concentration of about 10 mg/mL, and the suspension was used as the crude membrane preparation.
as §1, §2, §3, §4, §5

[1] = system: vasopressor response induced by phenylephrine (an α1 adrenoceptor agonist); test: Inhibitory activity against vasopressor response induced by phenylephrine in rats under anesthesia; format: in vivo, rat; details: continuous i.v. infusion, 15 minutes after administration, phenylephrine 3 μg/kg, mean ± standard error
Experimental: The inhibitory activity of the α1B adrenoceptor antagonist according to Example 23 against vasopressor response induced by phenylephrine (an α1 adrenoceptor agonist) in rats under anesthesia was studied. […] The compound was dissolved in physiological saline, and was infused into the femoral vein at a rate of 20 μl/kg/min. Phenylephrine was dissolved in physiological saline and was bolus injected at a dose of 0.2 ml/kg (3 μg/kg). The inhibition rate was calculated according to the following equation.
Inhibition rate (7)=[1—(pressure increase induced by phenylephrine 15 minutes after administration of the example compound)/(pressure increase induced by phenylephrine before administration of the example compound)]×100

| Compound | Ki (α1A adrenoceptor) | Ki (α1B adrenoceptor) | Inhibition rate ([1]; dose 0.1 mg/kg/min) | Inhibition rate ([1]; dose 0.3 mg/kg/min) | Inhibition rate ([1]; dose 1 mg/kg/min) | Inhibition rate ([1]; dose 3 mg/kg/min) |
| --- | --- | --- | --- | --- | --- | --- |
| c1ccc2c(c1)CN(CCCN1CCC(c3c[nH]c4ccccc34)CC1)C2 [Example 14, 3-(1-(3-Isoindolin-2-ylpropyl)-4-piperidyl)indole Hydrochloride] | 0.05 µM | 0.0036 µM |  |  |  |  |
| c1ccc2c(c1)CN(CCCCN1CCC(c3c[nH]c4ccccc34)CC1)C2 [Example 15, 3-(1-(4-Isoindolin-2-ylbutyl)-4-piperidyl)indole Hydrochloride] | 0.03 µM | 0.0014 µM |  |  |  |  |
| Fc1ccc2c(C3CCN(CCCN4Cc5ccccc5C4)CC3)c[nH]c2c1 [Example 23, 6-Fluoro-3-(1-(3-Isoindolin-2-ylpropyl)-4-piperidyl)indole Hydrochloride] | 0.018 µM | 0.00079 µM | 24 ± 5% | 47 ± 5% | 72 ± 5% | 86 ± 2% |
| c1ccc(C2CCN(CCCN3CCC(c4ccccc4)CC3)CC2)cc1 [Reference Example 21, 4-Phenyl-1-(3-(4-phenylpiperidyl)propyl)piperidine Hydrochloride, reference compound] | 0.87 µM | 0.86 µM |  |  |  |  |
| c1ccc2c(c1)CN(CCCCCN1CCC(c3c[nH]c4ccccc34)CC1)C2 [Example 16, 3-(1-(5-Isoindolin-2-ylpentyl)-4-piperidyl)indole] | 0.082 µM | 0.0016 µM |  |  |  |  |
| Fc1ccc2c(C3CCN(CCCN4CCCCC4)CC3)c[nH]c2c1 [Example 21, 6-Fluoro-3-(1i-(3-Piperidylpropyl)-4-piperidyl)indole Hydrochloride] | 0.021 µM | 0.00063 µM |  |  |  |  |

— patent US6642228B1, “α1b-adrenergic receptor antagonists” (Toray Industries, Inc., priority 1999, dated 2003)
